Test results reported in ChEMBL document CHEMBL1201862, “PubChem BioAssay data set” (2004).
Activity calls are given as the source filed them.

Columns and labels:
[1] = biological target: T1, DNA repair and recombination protein RAD54-like (Homo sapiens, UniProt Q92698); experiment: RAD54 Holliday junction migration blockers – biochemical, fluorescence, cherry-picked samples, dose series, confirmation (AID 651657); type: functional
T1 sequence (Q92698 whole entry): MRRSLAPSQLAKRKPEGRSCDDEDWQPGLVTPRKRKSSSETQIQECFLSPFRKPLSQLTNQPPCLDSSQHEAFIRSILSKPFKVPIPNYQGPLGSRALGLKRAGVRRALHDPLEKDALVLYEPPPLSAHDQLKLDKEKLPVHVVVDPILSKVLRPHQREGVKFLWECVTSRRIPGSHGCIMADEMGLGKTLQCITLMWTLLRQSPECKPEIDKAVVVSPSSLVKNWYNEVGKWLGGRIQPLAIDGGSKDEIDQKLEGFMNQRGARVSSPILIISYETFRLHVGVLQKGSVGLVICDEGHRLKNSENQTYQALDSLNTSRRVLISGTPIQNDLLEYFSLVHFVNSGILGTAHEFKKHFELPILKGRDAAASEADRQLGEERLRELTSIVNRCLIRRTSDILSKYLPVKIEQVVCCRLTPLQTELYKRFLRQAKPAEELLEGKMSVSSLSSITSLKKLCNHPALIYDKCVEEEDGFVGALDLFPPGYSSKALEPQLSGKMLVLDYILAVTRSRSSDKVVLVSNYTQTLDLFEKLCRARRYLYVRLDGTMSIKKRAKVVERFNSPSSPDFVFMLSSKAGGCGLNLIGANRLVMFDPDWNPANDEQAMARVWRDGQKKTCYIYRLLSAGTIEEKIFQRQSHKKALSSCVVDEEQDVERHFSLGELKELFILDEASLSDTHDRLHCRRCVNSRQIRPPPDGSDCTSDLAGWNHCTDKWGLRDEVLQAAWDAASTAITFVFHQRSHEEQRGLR

[2] = biological target: T2, DNA repair protein RAD52 homolog (Homo sapiens, UniProt P43351); type: functional, biochemical
T2 sequence (P43351 whole entry): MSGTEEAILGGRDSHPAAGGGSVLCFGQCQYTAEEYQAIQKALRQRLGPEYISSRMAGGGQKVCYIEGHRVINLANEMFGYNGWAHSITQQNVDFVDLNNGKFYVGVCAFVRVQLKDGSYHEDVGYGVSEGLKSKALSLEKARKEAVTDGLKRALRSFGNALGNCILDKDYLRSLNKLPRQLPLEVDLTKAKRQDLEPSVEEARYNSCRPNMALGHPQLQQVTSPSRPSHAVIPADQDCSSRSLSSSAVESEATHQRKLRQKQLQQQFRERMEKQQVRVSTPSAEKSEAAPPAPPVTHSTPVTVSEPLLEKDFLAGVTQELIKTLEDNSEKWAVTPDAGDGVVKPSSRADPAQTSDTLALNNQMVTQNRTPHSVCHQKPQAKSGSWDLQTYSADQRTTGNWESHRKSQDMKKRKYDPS

[3] = viability inhibitors of stage V gametocytes – luminescence, dose response (AID 1117278); type: functional, cell-based;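 also: gametocytes exposed to compound for 24 hours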
[4] = viability loss in human Jurkat cells – cell-based, luminescence, cytotoxicity control for P. falciparum gametocyte viability project, dose response (AID 1117277); type: functional;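 also: potency reflects loss of cellular ATP meaning fewer viable cells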
[5] = HGIII-sPLA2 enzyme inhibition potency – biochemical, QFRET, IC50, dose response (AID 743457);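 also: green fluorescence rise as the enzyme cleaves BODIPY PC-A2 in liposomes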
[6] = biological target: Mitogen-activated protein kinase 10 (Homo sapiens, UniProt P53779); experiment: Dose response biochemical screening assay for inhibitors of c-Jun N-Terminal Kinase 3 (JNK3). [Related pubchem assays: 746 ]
[7] = blockers of HIV-1 envelope-mediated cell-cell fusion – cherry-pick, dose response (AID 652057); type: functional, cell-based
[8] = viability loss in CEM21 cells – cell-based, CellTiter-Glo luminescence, cherry-picked, cytotoxicity control for viral fusion inhibitor project, dose response (AID 652042); type: functional;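 also: potency for signal decrease meaning cytotoxicity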
[9] = blockers of HIV-1 ZM109 envelope-driven cell-cell fusion – HeLa effector, CEM target cells, luciferase, cherry-pick, dose response (AID 652058); type: functional, cell-based;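 also: luciferase signal from HIV-1 Env mediated cell-cell fusion of effector and target cells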
[10] = off-target signal loss in HeLa-CEM21 co-culture – HeLa F-luc CTL cells, cherry-picked, counter-screen for HIV-1 Env fusion inhibitor project, dose response (AID 652040); type: functional, cell-based;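 also: potency for signal decrease marking cytotoxic or nonspecific inhibition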
[11] = HIV-1 AD8 envelope cell-cell fusion blockers – cherry-pick, dose response (AID 652062); type: functional, cell-based;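 also: luciferase signal from cell-cell fusion driven by HIV-1 clade B AD8 Env; potency is for inhibitors of fusion seen as a drop in luminescence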
Prothrombin = Prothrombin (Homo sapiens, UniProt P00734); experiment: Thrombin 1536 HTS Dose Response Confirmation. [Related pubchem assays: 1046 (Thrombin 1536 HTS; hits were confirmed in this assay)]; type: functional
[12] = viability of uninfected HEp-2 cells – cell-based, HTS, cytotoxicity control for RSV inhibitor project, dose response (AID 2410); type: functional; conditions: human respiratory syncytial virus
[13] = luciferase reporter signal suppression in cells – H4 neuroglioma cells, luminescence, dose response (AID 1990); type: functional, cell-based
[14] = Luminescence Cell-Based Dose Response HTS to Identify Inhibitors of 5'UTR Stem-Loop Driven Prion Protein mRNA Translation in H4 Neuroglioblastoma Cells. [Related pubchem assays: 1827 (Project Summary), 1813 (Primary HTS)]; type: functional
[15] = alpha-synuclein stem-loop luciferase translation blockers – H4 neuroglioma cells, luminescence, confirmation (AID 1988); type: functional, cell-based
[16] = Trypanosoma cruzi growth suppression in host cells – NIH3T3 host cells, beta-gal luminescence, confirmation (AID 2044); type: functional, cell-based;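 also: intracellular parasites grown in NIH/3T3 mouse fibroblasts as host cells; luminescent beta-galactosidase reporter signal from transgenic T. cruzi replicating inside host cells; inhibitors lower the luminescence signal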
[17] = NIH3T3 cell viability loss – ATP luminescence, mouse fibroblasts, counter-screen, dose response (AID 2010); type: functional, cell-based;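 also: cells exposed to compound for about 90 hours before reading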
cells [18] = type: functional, cell-based
cells [19] = type: functional, cell-based; remark: listed apart in the source

Sequence of Mitogen-activated protein kinase 10 (P53779 whole entry, the tested form may be a part): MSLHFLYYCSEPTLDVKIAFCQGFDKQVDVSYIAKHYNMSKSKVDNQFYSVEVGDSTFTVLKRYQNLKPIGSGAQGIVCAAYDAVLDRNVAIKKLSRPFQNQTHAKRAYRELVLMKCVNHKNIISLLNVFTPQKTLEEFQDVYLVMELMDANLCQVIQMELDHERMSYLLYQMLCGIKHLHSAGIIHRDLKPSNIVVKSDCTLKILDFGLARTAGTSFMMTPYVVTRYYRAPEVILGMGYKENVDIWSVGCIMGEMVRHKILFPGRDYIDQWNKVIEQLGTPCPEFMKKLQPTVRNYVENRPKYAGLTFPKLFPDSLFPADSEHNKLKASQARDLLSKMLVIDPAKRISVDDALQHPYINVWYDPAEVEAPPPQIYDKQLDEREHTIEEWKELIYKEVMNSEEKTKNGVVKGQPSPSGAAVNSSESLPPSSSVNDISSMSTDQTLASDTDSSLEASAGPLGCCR

Structure (SMILES): Cc1cccc(-c2nc(NCCCN(C)C)c3ccccc3n2)c1
- AC50 [1]: 21.4 µM (active)
- AC50 [2]: 9.69 µM (active)

Structure (SMILES): O=C(NC(Cc1ccc(O)cc1)C(=O)O)c1ccco1 (stereo unspecified)
- IC50 [3]: > 109 µM (inactive)
- IC50 [4]: > 83.3 µM (inactive)

Structure (SMILES): Cc1cc(C)c2sc(NNC(=O)C3COc4ccccc4O3)nc2c1 (stereo unspecified)
- IC50 [5]: 26.2 µM (inactive)

Structure (SMILES): CCOc1ccccc1NC(=O)COc1cccc(-n2cnnn2)c1
- IC50 [6]: 69.2 µM (not active)

Structure (SMILES): COc1ccc(CCC(C)NCc2ccc(Cl)c(Cl)c2)cc1 (stereo unspecified)
- AC50 [7]: 5.33 µM (active)
- AC50 [8]: 59.6 µM (active)
- AC50 [9]: 7.63 µM (active)
- AC50 [10]: 8.87 µM (active)
- AC50 [11]: 6.23 µM (active)

Structure (SMILES): COC(=O)c1ccccc1NC(=O)COC(=O)c1ccco1
- IC50 [6]: 56.7 µM (not active)

Structure (SMILES): O=C(c1ccccc1)n1nc(-c2ccccc2)nc1NCc1ccco1
- IC50 (Prothrombin): 1.72 µM (active)

Structure (SMILES): CC(C)(C)C(=O)N1CCN(c2ccc(Cl)cc2[N+](=O)[O-])CC1
- IC50 [3]: > 109 µM (inactive)
- IC50 [4]: > 83.3 µM (inactive)

Structure (SMILES): FC(F)(F)c1cnc(NN=C(S)Nc2cccnc2)c(Cl)c1
- IC50 [5]: > 122 µM (inactive)

Structure (SMILES): CCc1cccc2c1Sc1ccccc1CC2N1CCNCC1 (stereo unspecified)
- CC50 [12]: 13 µM (active)
- EC50 [13]: > 120 µM (not active)
- EC50 [14]: > 120 µM (not active)
- EC50 [15]: > 120 µM (not active)
- EC50 [16]: 3.99 µM (active)
- EC50 [17]: 9.15 µM (active)
- AC50 [2]: 18 µM (active)

Structure (SMILES): CC(C)Oc1ccc(C2CC(=O)N(c3cccc(C(=O)O)c3)C2=O)cc1 (stereo unspecified)
- IC50 [3]: > 109 µM (inactive)
- IC50 [4]: > 83.3 µM (inactive)

Structure (SMILES): COc1ccc(COC(=O)C2=C(C)NC(=O)NC2c2ccc(O)c(OC)c2)cc1 (stereo unspecified)
- IC50 [6]: 33.8 µM (not active)

Structure (SMILES): COc1ccc(-n2cc(-c3ccccc3)nc2S)cc1
- IC50 [5]: > 122 µM (inactive)

Structure (SMILES): CCC(C)NCCOc1ccc(C)cc1[N+](=O)[O-] (stereo unspecified)
- EC50 (cells [18]): > 350 µM (not active)
- EC50 (cells [19]): > 350 µM (not active)
- IC50 (Prothrombin): > 50 µM (not active)

Structure (SMILES): c1cc2cc(CNc3nc(NCC4CC4)nc4ccsc34)ccc2o1
- AC50 [7]: 4.73 µM (active)
- AC50 [8]: 35.9 µM (active)
- AC50 [9]: 33.1 µM (active)
- AC50 [10]: 8.05 µM (active)
- AC50 [11]: 22.5 µM (active)

Structure (SMILES): Oc1ccc2c3c1O[C@H]1c4[nH]c5c(c4CC4(O)C(C2)N(CC2CC2)CCC314)CC1(O)[C@H]2Cc3ccc(O)c4c3[C@@]1(CCN2CC1CC1)C5O4 (stereo partly specified)
- AC50 [2]: 11.1 µM (active)
